Data reported in ChEMBL document CHEMBL4152386, “Discovery of a Novel Inhaled PI3Kδ Inhibitor for the Treatment of Respiratory Diseases” (J Med Chem, 2018).
pIC50: −log10 of the molar value.

Assays:
[1] = biological target: Phosphatidylinositol 4,5-bisphosphate 3-kinase catalytic subunit gamma isoform (Homo sapiens, UniProt P48736); assay: Inhibition of recombinant human N-terminal His6-tagged full length p110gamma using PIP2 as substrate preincubated for 30 mins followed by substrate addition by HTRF assay
[2] = biological target: PI3-kinase p110-delta/p85-alpha (Homo sapiens, UniProt O00329)
Description: Inhibition of recombinant human N-terminal His-tagged full length p110delta/recombinant human full length p85alpha using PIP2 as substrate preincubated for 30 mins followed by substrate addition by HTRF assay

[3] = biological target: PI3K p110 beta/p85 alpha (Homo sapiens, UniProt P42338)
Description: Inhibition of recombinant human N-terminal His6-tagged full length p110beta/recombinant human full length p85alpha using PIP2 as substrate preincubated for 30 mins followed by substrate addition and HTRF assay

[4] = Drug metabolism in rat liver microsomes assessed as disappearance of parent compound at 5 uM after 30 mins in presence of NADPH by UPLC-MS/MS analysis; assay type: ADME, microsome; conditions: read-out: Drug metabolism
[5] = Drug metabolism in human liver microsomes assessed as disappearance of parent compound at 5 uM after 30 mins in presence of NADPH by UPLC-MS/MS analysis; assay type: ADME, microsome; conditions: read-out: Drug metabolism
[6] = biological target: PI3-kinase p110-alpha/p85-alpha (Homo sapiens, UniProt P42336)
Description: Inhibition of recombinant human N-terminal His6-tagged full length p110alpha/recombinant human full length p85alpha using PIP2 as substrate preincubated for 30 mins followed by substrate addition by HTRF assay

[7] = Drug metabolism in rat liver microsomes assessed as disappearance of parent compound at 5 uM preincubated for 3 mins followed UDPG addition and measured after 120 mins by UPLC-MS/MS analysis; assay type: ADME, microsome; conditions: read-out: Drug metabolism
[8] = Drug metabolism in human liver microsomes assessed as disappearance of parent compound at 5 uM preincubated for 3 mins followed UDPG addition and measured after 120 mins by UPLC-MS/MS analysis; assay type: ADME, microsome; conditions: read-out: Drug metabolism
[9] = tested on: Rattus norvegicus; assay: (§1) Anti-inflammatory activity in Brown Norway rat model of ovalbumin-induced inflammation assessed inhibition of eosinophil infiltration in bronchoalveolar lavage at 0.3 mg/kg, it administered 1 hr before ovalbumin aerosol challenge and measured 24 hrs post challenge by hematology analysis relative to control; assay type: functional; conditions: inhaled or nasal
[10] = tested on: Rattus norvegicus; assay: as §1, with “neutrophil” for “eosinophil”; assay type: functional; conditions: inhaled or nasal

Chain of PI3K p110 beta/p85 alpha (P27986 whole entry): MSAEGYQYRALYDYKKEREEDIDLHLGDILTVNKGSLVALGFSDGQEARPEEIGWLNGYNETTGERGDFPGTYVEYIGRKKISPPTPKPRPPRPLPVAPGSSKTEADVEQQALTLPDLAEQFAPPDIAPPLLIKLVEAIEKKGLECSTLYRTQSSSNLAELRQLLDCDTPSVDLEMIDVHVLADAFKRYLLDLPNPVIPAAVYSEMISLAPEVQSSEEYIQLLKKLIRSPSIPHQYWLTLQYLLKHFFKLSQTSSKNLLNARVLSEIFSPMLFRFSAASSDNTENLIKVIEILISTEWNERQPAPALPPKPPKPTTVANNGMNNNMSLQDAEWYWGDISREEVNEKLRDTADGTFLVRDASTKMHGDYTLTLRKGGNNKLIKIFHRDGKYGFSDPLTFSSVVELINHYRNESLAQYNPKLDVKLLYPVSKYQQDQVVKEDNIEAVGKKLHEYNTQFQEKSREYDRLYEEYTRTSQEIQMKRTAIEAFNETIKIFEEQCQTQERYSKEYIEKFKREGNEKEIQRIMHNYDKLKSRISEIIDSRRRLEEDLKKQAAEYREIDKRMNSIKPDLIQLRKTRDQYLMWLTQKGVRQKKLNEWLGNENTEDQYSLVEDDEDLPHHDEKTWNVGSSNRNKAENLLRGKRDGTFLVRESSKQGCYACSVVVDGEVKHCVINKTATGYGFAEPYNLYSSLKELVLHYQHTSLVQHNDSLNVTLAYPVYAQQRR
Chain of PI3K p110 beta/p85 alpha (P42338 whole entry): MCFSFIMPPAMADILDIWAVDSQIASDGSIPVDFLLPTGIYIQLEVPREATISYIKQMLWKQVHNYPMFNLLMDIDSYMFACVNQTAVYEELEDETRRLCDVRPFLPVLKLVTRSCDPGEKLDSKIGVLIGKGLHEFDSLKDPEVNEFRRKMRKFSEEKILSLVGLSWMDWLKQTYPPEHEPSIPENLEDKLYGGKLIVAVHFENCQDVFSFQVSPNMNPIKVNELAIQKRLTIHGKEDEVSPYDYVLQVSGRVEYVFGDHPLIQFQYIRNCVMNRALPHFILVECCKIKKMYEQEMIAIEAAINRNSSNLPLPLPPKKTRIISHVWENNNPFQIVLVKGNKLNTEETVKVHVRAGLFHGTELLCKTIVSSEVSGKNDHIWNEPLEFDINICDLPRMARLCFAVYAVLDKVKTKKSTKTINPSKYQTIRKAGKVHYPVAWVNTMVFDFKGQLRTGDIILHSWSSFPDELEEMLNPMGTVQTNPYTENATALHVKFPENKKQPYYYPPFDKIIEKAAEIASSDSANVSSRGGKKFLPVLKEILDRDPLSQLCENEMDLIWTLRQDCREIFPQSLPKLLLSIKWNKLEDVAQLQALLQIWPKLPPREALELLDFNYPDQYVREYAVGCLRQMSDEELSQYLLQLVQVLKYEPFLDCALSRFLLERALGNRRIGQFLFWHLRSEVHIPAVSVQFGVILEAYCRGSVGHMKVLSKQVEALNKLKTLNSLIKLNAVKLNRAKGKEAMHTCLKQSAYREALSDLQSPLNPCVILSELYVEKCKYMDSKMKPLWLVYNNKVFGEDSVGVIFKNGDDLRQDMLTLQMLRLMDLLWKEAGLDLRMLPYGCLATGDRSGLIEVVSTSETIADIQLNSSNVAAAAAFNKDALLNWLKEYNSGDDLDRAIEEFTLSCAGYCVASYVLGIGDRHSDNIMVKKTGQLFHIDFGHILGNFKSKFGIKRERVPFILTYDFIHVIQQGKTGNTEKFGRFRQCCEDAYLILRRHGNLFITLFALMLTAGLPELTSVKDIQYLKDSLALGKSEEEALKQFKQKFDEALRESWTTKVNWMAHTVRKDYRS
Chain of PI3-kinase p110-delta/p85-alpha (P27986 whole entry): as the sequence (P27986 whole entry) above
Chain of PI3-kinase p110-delta/p85-alpha (O00329 whole entry): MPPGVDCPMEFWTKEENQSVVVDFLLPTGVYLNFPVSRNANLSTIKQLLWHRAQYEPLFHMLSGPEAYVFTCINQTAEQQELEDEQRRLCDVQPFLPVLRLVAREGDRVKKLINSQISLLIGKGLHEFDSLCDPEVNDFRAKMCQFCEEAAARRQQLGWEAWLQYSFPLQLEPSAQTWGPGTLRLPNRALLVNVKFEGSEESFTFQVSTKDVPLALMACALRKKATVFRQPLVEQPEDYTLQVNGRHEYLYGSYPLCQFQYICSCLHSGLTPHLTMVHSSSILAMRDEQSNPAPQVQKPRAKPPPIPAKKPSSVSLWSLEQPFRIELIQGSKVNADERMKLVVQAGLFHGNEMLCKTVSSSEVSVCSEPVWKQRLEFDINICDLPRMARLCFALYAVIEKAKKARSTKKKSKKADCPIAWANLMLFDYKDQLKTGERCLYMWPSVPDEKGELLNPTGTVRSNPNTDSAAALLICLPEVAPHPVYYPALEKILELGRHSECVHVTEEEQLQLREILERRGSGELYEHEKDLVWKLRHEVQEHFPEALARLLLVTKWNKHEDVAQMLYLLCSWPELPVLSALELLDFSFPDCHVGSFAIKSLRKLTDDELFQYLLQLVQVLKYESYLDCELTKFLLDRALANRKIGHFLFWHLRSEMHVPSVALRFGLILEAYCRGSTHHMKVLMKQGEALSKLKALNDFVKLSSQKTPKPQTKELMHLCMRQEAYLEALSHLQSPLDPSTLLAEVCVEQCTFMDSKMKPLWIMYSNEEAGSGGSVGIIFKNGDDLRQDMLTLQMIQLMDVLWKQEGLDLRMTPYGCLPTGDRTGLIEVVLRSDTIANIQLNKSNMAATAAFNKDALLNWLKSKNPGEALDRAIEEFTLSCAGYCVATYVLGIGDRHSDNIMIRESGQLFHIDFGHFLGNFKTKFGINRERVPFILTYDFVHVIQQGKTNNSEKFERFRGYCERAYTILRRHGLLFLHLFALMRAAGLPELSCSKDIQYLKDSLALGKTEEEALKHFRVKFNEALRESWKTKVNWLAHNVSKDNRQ
Chain of PI3-kinase p110-alpha/p85-alpha (P27986 whole entry): as the sequence (P27986 whole entry) above
Chain of PI3-kinase p110-alpha/p85-alpha (P42336 whole entry): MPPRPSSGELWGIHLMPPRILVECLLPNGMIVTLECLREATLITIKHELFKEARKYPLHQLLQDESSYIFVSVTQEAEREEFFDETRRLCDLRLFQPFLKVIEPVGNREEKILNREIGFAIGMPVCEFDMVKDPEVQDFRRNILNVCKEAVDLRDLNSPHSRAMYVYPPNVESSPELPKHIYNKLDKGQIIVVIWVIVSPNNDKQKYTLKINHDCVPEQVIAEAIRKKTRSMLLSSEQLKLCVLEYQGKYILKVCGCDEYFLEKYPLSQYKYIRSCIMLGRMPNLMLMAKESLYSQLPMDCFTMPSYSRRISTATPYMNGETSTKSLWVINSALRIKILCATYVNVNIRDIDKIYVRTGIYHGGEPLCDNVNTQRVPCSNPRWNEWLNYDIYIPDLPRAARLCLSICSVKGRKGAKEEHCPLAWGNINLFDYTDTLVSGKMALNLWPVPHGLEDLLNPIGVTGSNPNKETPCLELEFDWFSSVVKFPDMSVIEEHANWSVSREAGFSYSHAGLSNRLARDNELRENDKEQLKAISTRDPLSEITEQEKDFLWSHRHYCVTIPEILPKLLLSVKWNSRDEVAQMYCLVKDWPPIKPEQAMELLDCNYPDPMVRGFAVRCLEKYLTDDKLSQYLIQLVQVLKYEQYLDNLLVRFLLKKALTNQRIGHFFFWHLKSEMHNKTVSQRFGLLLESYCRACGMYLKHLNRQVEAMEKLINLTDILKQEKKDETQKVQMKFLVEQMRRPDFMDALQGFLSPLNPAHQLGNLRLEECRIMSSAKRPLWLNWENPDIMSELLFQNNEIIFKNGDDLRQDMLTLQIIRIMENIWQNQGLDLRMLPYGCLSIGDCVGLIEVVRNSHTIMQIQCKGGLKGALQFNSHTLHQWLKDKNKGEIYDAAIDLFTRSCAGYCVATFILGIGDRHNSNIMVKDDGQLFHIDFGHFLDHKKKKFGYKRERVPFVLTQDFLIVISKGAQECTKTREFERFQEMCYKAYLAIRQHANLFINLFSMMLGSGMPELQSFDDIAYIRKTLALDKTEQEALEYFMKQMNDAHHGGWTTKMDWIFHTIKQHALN
Chain of Phosphatidylinositol 4,5-bisphosphate 3-kinase catalytic subunit gamma isoform (P48736 whole entry, canonical isoform): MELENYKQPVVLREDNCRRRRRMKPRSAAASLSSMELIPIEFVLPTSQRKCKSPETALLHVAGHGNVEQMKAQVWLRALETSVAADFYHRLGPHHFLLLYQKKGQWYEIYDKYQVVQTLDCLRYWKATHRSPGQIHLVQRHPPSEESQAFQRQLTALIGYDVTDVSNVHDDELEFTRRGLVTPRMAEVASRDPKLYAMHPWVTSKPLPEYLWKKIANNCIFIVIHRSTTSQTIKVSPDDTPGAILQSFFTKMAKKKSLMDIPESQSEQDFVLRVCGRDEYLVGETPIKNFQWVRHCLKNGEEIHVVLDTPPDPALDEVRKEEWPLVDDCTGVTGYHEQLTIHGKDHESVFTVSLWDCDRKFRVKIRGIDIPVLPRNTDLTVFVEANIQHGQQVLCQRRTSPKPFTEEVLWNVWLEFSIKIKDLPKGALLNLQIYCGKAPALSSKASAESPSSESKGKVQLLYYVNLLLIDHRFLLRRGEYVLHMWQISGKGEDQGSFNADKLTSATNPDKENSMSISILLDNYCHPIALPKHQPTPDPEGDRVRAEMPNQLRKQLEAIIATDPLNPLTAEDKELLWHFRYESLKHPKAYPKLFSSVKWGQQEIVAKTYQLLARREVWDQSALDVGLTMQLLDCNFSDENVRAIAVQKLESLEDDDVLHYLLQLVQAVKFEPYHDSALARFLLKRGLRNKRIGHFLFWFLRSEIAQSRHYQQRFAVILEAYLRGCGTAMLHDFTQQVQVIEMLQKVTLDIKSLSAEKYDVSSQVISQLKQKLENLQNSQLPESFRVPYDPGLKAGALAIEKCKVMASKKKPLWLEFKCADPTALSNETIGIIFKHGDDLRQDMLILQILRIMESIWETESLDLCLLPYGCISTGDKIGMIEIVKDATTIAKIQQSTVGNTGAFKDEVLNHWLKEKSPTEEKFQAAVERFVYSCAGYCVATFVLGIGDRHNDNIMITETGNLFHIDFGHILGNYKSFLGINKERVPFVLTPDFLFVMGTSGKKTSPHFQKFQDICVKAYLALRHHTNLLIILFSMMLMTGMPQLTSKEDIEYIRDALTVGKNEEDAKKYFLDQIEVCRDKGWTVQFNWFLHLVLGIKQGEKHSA

Compound: Cc1ccn2nc([C@H](C)Nc3ncnc(N)c3-c3ccc4oc(=O)[nH]c4c3)n(-c3ccccc3)c(=O)c12
- pIC50 [1]: 6.37
- pIC50 [2]: 7.96
- pIC50 [3]: 5.89

Compound: Cc1ccn2nc([C@H](C)Nc3ncnc(N)c3-c3cccc(NS(C)(=O)=O)c3)n(-c3ccccc3)c(=O)c12
- pIC50 [1]: 8.77
- metabolised at 0.5 h, 5 µM [4]: 32%
- metabolised at 0.5 h, 5 µM [5]: 97%
- pIC50 [2]: 9.52
- pIC50 [6]: 6.14
- pIC50 [3]: 7.43

Compound: Cc1ccn2nc([C@H](C)Nc3ncnc4[nH]cc(-c5cnn(C)c5)c34)n(-c3ccccc3)c(=O)c12
- pIC50 [1]: 8.44
- metabolised at 0.5 h, 5 µM [4]: 36%
- metabolised at 2 h, 5 µM [7]: 6%
- metabolised at 0.5 h, 5 µM [5]: 91%
- metabolised at 2 h, 5 µM [8]: 91%
- pIC50 [2]: 9.70
- pIC50 [6]: 6.64
- pIC50 [3]: 7.66

Compound: Cc1ccn2nc([C@H](C)Nc3ncnc(N)c3-c3cc(O)cc(F)c3)n(-c3ccccc3)c(=O)c12
- pIC50 [1]: 7.40
- metabolised at 0.5 h, 5 µM [4]: 75%
- metabolised at 2 h, 5 µM [7]: 26%
- metabolised at 0.5 h, 5 µM [5]: 84%
- metabolised at 2 h, 5 µM [8]: 74%
- pIC50 [2]: 9.22
- pIC50 [6]: 5.72
- pIC50 [3]: 6.96

Compound: Cc1ccn2nc([C@H](C)Nc3ncnc4[nH]cc(-c5ccc(O)cc5)c34)n(-c3ccccc3)c(=O)c12
- pIC50 [1]: 9.15
- pIC50 [2]: 9.40
- pIC50 [6]: 6.96
- pIC50 [3]: 8.39

Compound: Cc1ccn2nc([C@H](C)Nc3ncnc4[nH]cc(-c5cccc6cc[nH]c56)c34)n(-c3ccccc3)c(=O)c12
- pIC50 [2]: 8.89
- pIC50 [3]: 7.10

Compound: Cc1ccn2nc([C@H](C)Nc3ncnc(N)c3-c3cc(O)cc(C(F)(F)F)c3)n(-c3ccccc3)c(=O)c12
- pIC50 [1]: 8.17
- pIC50 [2]: 9.70
- pIC50 [6]: 6.51
- pIC50 [3]: 8.00

Compound: Cc1ccn2nc([C@H](C)Nc3ncnc4[nH]cc(-c5cc(O)cc(NS(C)(=O)=O)c5)c34)n(-c3ccccc3)c(=O)c12
- pIC50 [1]: 9.15
- metabolised at 0.5 h, 5 µM [4]: 16%
- metabolised at 2 h, 5 µM [7]: 28%
- metabolised at 0.5 h, 5 µM [5]: 67%
- metabolised at 2 h, 5 µM [8]: 94%
- pIC50 [2]: 9.70
- pIC50 [6]: 7.66
- pIC50 [3]: 8.60

Compound: Cc1ccn2nc([C@H](C)Nc3ncnc4[nH]cc(C(=O)Nc5cccc(O)c5)c34)n(-c3ccccc3)c(=O)c12
- pIC50 [1]: 7.89
- pIC50 [2]: 8.70
- pIC50 [6]: 6.00
- pIC50 [3]: 6.64

Compound: Cc1ccn2nc([C@H](C)Nc3ncnc(N)c3-c3ccc(O)cc3)n(-c3ccccc3)c(=O)c12
- pIC50 [1]: 6.80
- metabolised at 0.5 h, 5 µM [4]: 22%
- metabolised at 2 h, 5 µM [7]: 21%
- metabolised at 0.5 h, 5 µM [5]: 84%
- metabolised at 2 h, 5 µM [8]: 76%
- pIC50 [2]: 7.66
- pIC50 [6]: 5.08
- pIC50 [3]: 5.77

Compound: Cc1ccn2nc([C@H](C)Nc3ncnc(N)c3-c3cc(O)cc(NS(C)(=O)=O)c3)n(-c3ccccc3)c(=O)c12
- pIC50 [1]: 7.82

Compound: Cc1ccn2nc([C@H](C)Nc3ncnc4[nH]cc(-c5cc(C(F)(F)F)ccc5O)c34)n(-c3ccccc3)c(=O)c12
- pIC50 [1]: 8.48
- metabolised at 0.5 h, 5 µM [4]: 21%
- metabolised at 0.5 h, 5 µM [5]: 58%
- pIC50 [2]: 9.52
- pIC50 [6]: 6.60
- pIC50 [3]: 8.14

Compound: C[C@H](Nc1ncnc(N)c1C#N)c1nn2cccc2c(=O)n1-c1ccccc1
- metabolised at 0.5 h, 5 µM [4]: 16%

Compound: Cc1ccn2nc([C@H](C)Nc3ncnc(N)c3-c3ccc4cc[nH]c4c3)n(-c3ccccc3)c(=O)c12
- pIC50 [1]: 6.38
- metabolised at 0.5 h, 5 µM [4]: 47%
- metabolised at 0.5 h, 5 µM [5]: 50%
- metabolised at 2 h, 5 µM [8]: 9.6%
- pIC50 [6]: 5.07
- pIC50 [3]: 6.85

Compound: Cc1ccn2nc([C@H](C)Nc3ncnc4[nH]cc(-c5cccc6[nH]ccc56)c34)n(-c3ccccc3)c(=O)c12
- pIC50 [1]: 7.77
- metabolised at 0.5 h, 5 µM [4]: 74%
- metabolised at 0.5 h, 5 µM [5]: 92%
- pIC50 [2]: 9.70
- pIC50 [6]: 6.39
- pIC50 [3]: 7.92

Compound: Cc1ccn2nc([C@H](C)Nc3ncnc(N)c3Cc3cccc(O)c3)n(-c3ccccc3)c(=O)c12
- pIC50 [2]: 7.66
- pIC50 [6]: 5.18
- pIC50 [3]: 5.52

Compound: COc1cccc(-c2c[nH]c3ncnc(N[C@@H](C)c4nn5ccc(C)c5c(=O)n4-c4ccccc4)c23)c1O
- pIC50 [1]: 7.09
- metabolised at 0.5 h, 5 µM [4]: 58%
- metabolised at 2 h, 5 µM [7]: 44%
- metabolised at 0.5 h, 5 µM [5]: 99%
- metabolised at 2 h, 5 µM [8]: 90%
- pIC50 [2]: 9.70
- pIC50 [6]: 6.12
- pIC50 [3]: 7.85

Compound: C[C@@H]1C[C@H]2[C@@H]3C[C@H](F)C4=CC(=O)C=C[C@]4(C)[C@@]3(F)[C@@H](O)C[C@]2(C)[C@@]1(O)C(=O)SCF [FLUTICASONE]
- inhibition in vivo at 0.3 mg/kg [9]: 82%
- inhibition in vivo at 0.3 mg/kg [10]: 89%

Compound: Cc1ccn2nc([C@H](C)Nc3ncnc4[nH]cc(-c5cccc(NS(C)(=O)=O)c5)c34)n(-c3ccccc3)c(=O)c12
- pIC50 [1]: 8.51
- metabolised at 0.5 h, 5 µM [4]: 23%
- metabolised at 0.5 h, 5 µM [5]: 74%
- pIC50 [2]: 9.52
- pIC50 [6]: 6.72
- pIC50 [3]: 7.54

Compound: Cc1ccn2nc([C@H](C)Nc3ncnc4[nH]cc(Cc5cccc(O)c5)c34)n(-c3ccccc3)c(=O)c12
- pIC50 [1]: 7.19
- metabolised at 0.5 h, 5 µM [4]: 72%
- metabolised at 0.5 h, 5 µM [5]: 100%
- pIC50 [2]: 8.85
- pIC50 [6]: 5.54
- pIC50 [3]: 6.68

Compound: Cc1ccn2nc([C@H](C)Nc3ncnc4[nH]cc(-c5cccc(F)c5O)c34)n(-c3ccccc3)c(=O)c12
- pIC50 [1]: 7.92
- metabolised at 0.5 h, 5 µM [4]: 27%
- metabolised at 0.5 h, 5 µM [5]: 41%
- pIC50 [2]: 8.72
- pIC50 [6]: 6.00
- pIC50 [3]: 7.28

Compound: Cc1ccn2nc([C@H](C)Nc3ncnc(N)c3C(=O)Nc3cccc(O)c3)n(-c3ccccc3)c(=O)c12
- pIC50 [1]: 8.00
- metabolised at 0.5 h, 5 µM [4]: 42%
- metabolised at 0.5 h, 5 µM [5]: 60%
- pIC50 [2]: 9.70
- pIC50 [6]: 5.85
- pIC50 [3]: 7.41

Compound: Cc1ccn2nc([C@H](C)Nc3ncnc4[nH]cc(Sc5cccc(O)c5)c34)n(-c3ccccc3)c(=O)c12
- metabolised at 0.5 h, 5 µM [4]: 64%
- metabolised at 2 h, 5 µM [7]: 74%
- metabolised at 0.5 h, 5 µM [5]: 99%
- metabolised at 2 h, 5 µM [8]: 84%
- pIC50 [2]: 9.00
- pIC50 [6]: 6.11
- pIC50 [3]: 6.77

Compound: Cc1ccn2nc([C@H](C)Nc3ncnc4[nH]cc(-c5ccccc5O)c34)n(-c3ccccc3)c(=O)c12
- metabolised at 0.5 h, 5 µM [4]: 72%
- metabolised at 0.5 h, 5 µM [5]: 99%
- pIC50 [2]: 8.29

Compound: Cc1ccn2nc([C@H](C)Nc3ncnc4[nH]cc(-c5cc(O)cc(F)c5)c34)n(-c3ccccc3)c(=O)c12
- pIC50 [1]: 9.22
- pIC50 [2]: 9.70
- pIC50 [6]: 8.05
- pIC50 [3]: 8.64

Compound: Cc1ccn2nc([C@H](C)Nc3ncnc(N)c3Sc3cccc(O)c3)n(-c3ccccc3)c(=O)c12
- pIC50 [1]: 7.35
- metabolised at 0.5 h, 5 µM [4]: 94%
- metabolised at 0.5 h, 5 µM [5]: 100%
- pIC50 [2]: 8.74
- pIC50 [6]: 5.08
- pIC50 [3]: 6.02

Compound: COc1cc(-c2c[nH]c3ncnc(N[C@@H](C)c4nn5ccc(C)c5c(=O)n4-c4ccccc4)c23)ccc1O
- pIC50 [1]: 9.52
- pIC50 [2]: 9.70
- pIC50 [6]: 8.92
- pIC50 [3]: 8.89

Compound: Cc1ccn2nc([C@H](C)Nc3ncnc(N)c3C#N)n(-c3ccccc3)c(=O)c12
- pIC50 [1]: 7.19
- pIC50 [2]: 9.00
- pIC50 [6]: 5.64
- pIC50 [3]: 6.92

Compound: Cc1ccn2nc([C@H](C)Nc3ncnc(N)c3-c3cc(O)cc(Cl)c3)n(-c3ccccc3)c(=O)c12
- metabolised at 0.5 h, 5 µM [4]: 54%
- metabolised at 2 h, 5 µM [7]: 83%
- metabolised at 0.5 h, 5 µM [5]: 55%
- metabolised at 2 h, 5 µM [8]: 97%
- pIC50 [2]: 9.70
- pIC50 [6]: 6.25
- pIC50 [3]: 7.24

Compound: Cc1ccn2nc([C@H](C)Nc3ncnc4[nH]cc(-c5cn[nH]c5)c34)n(-c3ccccc3)c(=O)c12
- metabolised at 0.5 h, 5 µM [4]: 21%
- metabolised at 0.5 h, 5 µM [5]: 97%
- pIC50 [2]: 9.40
- pIC50 [3]: 8.37

Compound: Cc1ccn2nc([C@H](C)Nc3ncnc(N)c3-c3cnc(N)nc3)n(-c3ccccc3)c(=O)c12
- pIC50 [1]: 6.92
- metabolised at 0.5 h, 5 µM [5]: 27%
- metabolised at 2 h, 5 µM [8]: 6%
- pIC50 [3]: 6.44
